Laboratory results taken from EP3375430A1, “FRAGRANCE COMPOSITIONS” (Takasago International Corporation, priority 2017, dated 2018).

How the values were obtained:
[1] = Amount of fragrance ingredients retained on paper blotter after evaporation (ethanol extraction, GC-MS); assay type: physicochemical
Experimental: A fragrance (hereafter fragrance TAK, the formulation of which is shown in table 1) was formulated in a typical Eau de Toilette (EdT1) or in fragrance compositions according to the invention (compositions C1 to C4), as shown in table 2. The amount of individual fragrance ingredients retained on paper substrate (blotter) after set time periods was assessed by the following method.
100µL samples of either EdT1 or compositions C1 to C4 were applied to 4.5cm long standard paper blotters with a microsyringe. Three replicate blotters were prepared for each extraction time. After the appropriate evaporation time each of the 3 blotters was transferred to a 30mL glass bottle. 3mL of ethanol and 50µL of a 1% solution of methyl decanoate in ethanol as an internal standard were added. The bottle was sealed and placed on a roller bed to extract the blotter for 1 hour. A sample of the extracting solution was transferred to a vial which was sealed and analysed by gas chromatography (GC 6890) with a Mass Spectrometer detector (MS 5973) using the method described below. The results of the three replicate measurements were averaged. At exact times the same extraction was repeated on the remaining blotters which were stored on a warm surface at 32°C open to the air to allow evaporation. The gas chromatography conditions were as given below.
• Initial Temp: 50°C • Initial Time: 2 min • Rate: 10°C /min • Final Temp: 280°C • Final Time: 5 min • Run Time: 30 min
• Column: HP-5MS 30m * 0.25mm * 0.25µm • Gas: Helium • Constant Pressure 18.55 psi
• Split mode Ratio 40:1 • Inlet Temp: 250°C
• MS 5973 • Mass range: 35 to 350 • Threshold: 100 • Mass Quad: 150°C • Mass Source: 230°C
To simplify the results the average amount of each fragrance ingredient from the 3 samples measured at time zero was set at 100% and all other measurements were then related to that value so tables 3 to 6 show decreasing amounts of fragrance ingredients as a percentage of the initial amount.
The method of example 1 was repeated using a commercial fragrance (hereafter fragrance COM1, the formulation of which is given in table 7) formulated in a typical Eau de Toilette (EdT2) or in fragrance compositions according to the invention (compositions C5 and C6), as shown in table 8.

[2] = Headspace concentration of fragrance ingredients over blotter (thermal desorption GC-MS); assay type: physicochemical
Experimental: The headspace concentration of individual ingredients of fragrance TAK, as formulated in either a conventional EdT (EdT1) or a fragrance composition of the invention (C1), was assessed by the method described below.
A 10 cm length was cut from a standard perfumers' blotter. A sample of 100µL volume was applied to the upper surface of the blotter with a syringe. The blotter was placed on a hot plate thermostatted at 32°C and left to equilibrate for 5 minutes. Two desorption tubes (6cm length 4mm internal diameter) each containing 2 cm length of Tenax TA adsorbent were fitted to the glass part of a headspace apparatus shown in figure 9. The glass part was fitted over the blotter, a metering pump was connected to one of the desorption tubes and air was drawn through the apparatus flushing the headspace over the blotter at a rate of 17mL/min. Sampling continued for about 16.5 minutes until 280mL of air had been extracted. Then the outlet desorption tube was analysed by gas chromatography as described below. The glass part was removed from the blotter which was left on the hotplate until the next sampling time when two fresh desorption tubes were fitted and the extraction procedure repeated for a further 280mL of extracted headspace.
• Initial Temp: 50°C • Initial Time: 5 min • Rate: 3°C /min • Final Temp: 250°C • Final Time: 20 min • Run Time: 91.67 min
• Column: HP-5MS 30m * 0.25mm * 0.25µm • Gas: Helium • Constant pressure 12.675 psi
• Initial Temp: -30°C • Equilibration Time: 0.05 min • Initial Time: 0.00 min • Rate 12°C / min • End Temp: 260°C • Hold Time: 10 min
Temperature program • Initial Temp: 35°C • Delay Time: 0.30 min • Initial Time: 0.00 min • Rate: 30°C / min • End Temp: 250°C • Hold Time: 5.00 min
TDU Settings • Transfer Temp: 250°C • Transfer Temp Mode: Fixed • Desorption Mode: splitless • Sample mode: Retain tube - standby cooling • Standby Temp: 50°C
Detector MS • MS 5973 • Mass range: 35 to 350 • Threshold: 150 • Mass Quad: 150°C • Mass Source: 230°C
Following the procedure of example 2, the headspace concentration of representative ingredients of fragrance COM1 was determined. COM1 was dosed at 5 and 20 % either in control EdT3 and EdT4 or in compositions of the invention C7 and C8, as shown in table 10.
The headspace concentration of individual ingredients of fragrance TAK (see Table 1), as formulated in either a conventional EdT (EdT1) or fragrance compositions of the invention (C14, C15), was assessed by the method described in example 2.

Structure (SMILES): C=CC(C)(O)CCC=C(C)CC (mixture of isomers) [Ethyl Linalool, Ethyl linalool]
- amount of fragrance ingredient retained on blotter (percentage of the initial amount) ([1]; Table 9, fragrance COM1 in C5, T0 + 15 min): 80.96%
- amount of fragrance ingredient retained on blotter (percentage of the initial amount) ([1]; Table 9, fragrance COM1 in C5, T0 + 480 min): 8.4%
- amount of fragrance ingredient retained on blotter (percentage of the initial amount) ([1]; Table 9, fragrance COM1 in C5, T0 +1440 min): 2.22%
- amount of fragrance ingredient retained on blotter (percentage of the initial amount) ([1]; Table 9, fragrance COM1 in C6, T0 + 15 min): 70.8%
- amount of fragrance ingredient retained on blotter (percentage of the initial amount) ([1]; Table 9, fragrance COM1 in C6, T0 + 480 min): 6.9%
- amount of fragrance ingredient retained on blotter (percentage of the initial amount) ([1]; Table 9, fragrance COM1 in C6, T0 +1440 min): 2.6%
- amount of fragrance ingredient retained on blotter (percentage of the initial amount) ([1]; Table 9, fragrance COM1 in EdT2, C5 or C6, T0, set at 100% (normalisation)): 100%
- amount of fragrance ingredient retained on blotter (percentage of the initial amount) ([1]; Table 9, fragrance COM1 in EdT2, T0 + 15 min): 67.48%
- amount of fragrance ingredient retained on blotter (percentage of the initial amount) ([1]; Table 9, fragrance COM1 in EdT2, T0 + 480 min): 9.91%
- amount of fragrance ingredient retained on blotter (percentage of the initial amount) ([1]; Table 9, fragrance COM1 in EdT2, T0 +1440 min): 7.26%
- headspace concentration in composition C8 compared to control EdT4 ([2]; COM1 dosed at 20 wt%, up to 8 hours, Figures 8 to 10): significantly higher

Structure (SMILES): CC/C=C\CCOC(=O)c1ccccc1O [Cis 3-hexenyl salicylate, Cis-3-hexenyl salicylate]
- amount of fragrance ingredient retained on blotter (percentage of the initial amount) ([1]; Table 3, fragrance TAK in C1, 15 min, 32°C): 76%
- amount of fragrance ingredient retained on blotter (percentage of the initial amount) ([1]; Table 3, fragrance TAK in C1, 60 min, 32°C): 77%
- amount of fragrance ingredient retained on blotter (percentage of the initial amount) ([1]; Table 3, fragrance TAK in C1, 120 min, 32°C): 75%
- amount of fragrance ingredient retained on blotter (percentage of the initial amount) ([1]; Table 3, fragrance TAK in C1, 240 min, 32°C): 73%
- amount of fragrance ingredient retained on blotter (percentage of the initial amount) ([1]; Table 3, fragrance TAK in C1, 480 min, 32°C): 60%
- amount of fragrance ingredient retained on blotter (percentage of the initial amount) ([1]; Table 3, fragrance TAK in EdT1, 15 min, 32°C): 96%
- amount of fragrance ingredient retained on blotter (percentage of the initial amount) ([1]; Table 3, fragrance TAK in EdT1, 60 min, 32°C): 87%
- amount of fragrance ingredient retained on blotter (percentage of the initial amount) ([1]; Table 3, fragrance TAK in EdT1, 120 min, 32°C): 85%
- amount of fragrance ingredient retained on blotter (percentage of the initial amount) ([1]; Table 3, fragrance TAK in EdT1, 240 min, 32°C): 80%
- amount of fragrance ingredient retained on blotter (percentage of the initial amount) ([1]; Table 3, fragrance TAK in EdT1, 480 min, 32°C): 32%
- amount of fragrance ingredient retained on blotter (percentage of the initial amount) ([1]; Table 3, fragrance TAK in EdT1 or C1, T0, set at 100% (normalisation)): 100%
- amount of fragrance ingredient retained on blotter (percentage of the initial amount) ([1]; Table 4, fragrance TAK in C2, 15 min, 32°C): 99%
- amount of fragrance ingredient retained on blotter (percentage of the initial amount) ([1]; Table 4, fragrance TAK in C2, 480 min, 32°C): 63%
- amount of fragrance ingredient retained on blotter (percentage of the initial amount) ([1]; Table 4, fragrance TAK in EdT1, 15 min, 32°C): 84%
- amount of fragrance ingredient retained on blotter (percentage of the initial amount) ([1]; Table 4, fragrance TAK in EdT1, 480 min, 32°C): 32%
- amount of fragrance ingredient retained on blotter (percentage of the initial amount) ([1]; Table 4, fragrance TAK in EdT1 or C2, T0, set at 100% (normalisation)): 100%
- amount of fragrance ingredient retained on blotter (percentage of the initial amount) ([1]; Table 5, fragrance TAK in C3, 15 min, 32°C): 78%
- amount of fragrance ingredient retained on blotter (percentage of the initial amount) ([1]; Table 5, fragrance TAK in C3, 60 min, 32°C): 84%
- amount of fragrance ingredient retained on blotter (percentage of the initial amount) ([1]; Table 5, fragrance TAK in C3, 120 min, 32°C): 83%
- amount of fragrance ingredient retained on blotter (percentage of the initial amount) ([1]; Table 5, fragrance TAK in C3, 240 min, 32°C): 82%
- amount of fragrance ingredient retained on blotter (percentage of the initial amount) ([1]; Table 5, fragrance TAK in C3, 480 min, 32°C): 61%
- amount of fragrance ingredient retained on blotter (percentage of the initial amount) ([1]; Table 5, fragrance TAK in C3, 1440 min, 32°C): 50%
- amount of fragrance ingredient retained on blotter (percentage of the initial amount) ([1]; Table 5, fragrance TAK in EdT1, 15 min, 32°C): 96%
- amount of fragrance ingredient retained on blotter (percentage of the initial amount) ([1]; Table 5, fragrance TAK in EdT1, 60 min, 32°C): 87%
- amount of fragrance ingredient retained on blotter (percentage of the initial amount) ([1]; Table 5, fragrance TAK in EdT1, 120 min, 32°C): 85%
- amount of fragrance ingredient retained on blotter (percentage of the initial amount) ([1]; Table 5, fragrance TAK in EdT1, 240 min, 32°C): 80%
- amount of fragrance ingredient retained on blotter (percentage of the initial amount) ([1]; Table 5, fragrance TAK in EdT1, 480 min, 32°C): 32%
- amount of fragrance ingredient retained on blotter (percentage of the initial amount) ([1]; Table 5, fragrance TAK in EdT1, 1440 min, 32°C): 14%
- amount of fragrance ingredient retained on blotter (percentage of the initial amount) ([1]; Table 5, fragrance TAK in EdT1 or C3, T0, set at 100% (normalisation)): 100%
- amount of fragrance ingredient retained on blotter (percentage of the initial amount) ([1]; Table 6, fragrance TAK in C4, 15 min, 32°C): 92%
- amount of fragrance ingredient retained on blotter (percentage of the initial amount) ([1]; Table 6, fragrance TAK in C4, 60 min, 32°C): 84%
- amount of fragrance ingredient retained on blotter (percentage of the initial amount) ([1]; Table 6, fragrance TAK in C4, 120 min, 32°C): 93%
- amount of fragrance ingredient retained on blotter (percentage of the initial amount) ([1]; Table 6, fragrance TAK in C4, 240 min, 32°C): 94%
- amount of fragrance ingredient retained on blotter (percentage of the initial amount) ([1]; Table 6, fragrance TAK in C4, 480 min, 32°C): 65%
- amount of fragrance ingredient retained on blotter (percentage of the initial amount) ([1]; Table 6, fragrance TAK in EdT1, 15 min, 32°C): 96%
- amount of fragrance ingredient retained on blotter (percentage of the initial amount) ([1]; Table 6, fragrance TAK in EdT1, 60 min, 32°C): 87%
- amount of fragrance ingredient retained on blotter (percentage of the initial amount) ([1]; Table 6, fragrance TAK in EdT1, 120 min, 32°C): 85%
- amount of fragrance ingredient retained on blotter (percentage of the initial amount) ([1]; Table 6, fragrance TAK in EdT1, 240 min, 32°C): 80%
- amount of fragrance ingredient retained on blotter (percentage of the initial amount) ([1]; Table 6, fragrance TAK in EdT1, 480 min, 32°C): 32%
- amount of fragrance ingredient retained on blotter (percentage of the initial amount) ([1]; Table 6, fragrance TAK in EdT1 or C4, T0, set at 100% (normalisation)): 100%
- headspace concentration in composition C1 compared to control EdT1 ([2]; fragrance TAK, T0 + 8h, Figure 4): lower
